Test results as given in patent publication US20140121181A1, “HYDROPHOBIC POLYMER COMPOUND HAVING ANTICOAGULANT EFFECT” (TORY INDUSTRIES, INC., priority 2011, published 2014).

System: citric acid-supplemented blood collected from a volunteer
Experiment: Measurement of whole blood coagulation time (Sonoclot, ACT ONSET value)
Design: species or system human
Procedure: In a cuvette (Non-activated Clotting Test Kit), 18 μL of physiological saline was placed and 14.8 μL of calcicol was added thereto, followed by further addition of 342 μL of the thus obtained citric acid-supplemented blood. The resulting mixture was measured using a Sonoclot blood coagulation/platelet function analyzer (IMI Co., Ltd.) and the measured ACT ONSET value was defined as the whole blood coagulation time.

## CC1CNc2c(cccc2S(=O)(=O)N[C@@H](CCCNC(=N)N)C(=O)N2CC[C@@H](C)C[C@@H]2C(=O)O)C1 (mixture of isomers) [argatroban, (2R,4R)-4-methyl-1-((2S)-2-{[(3RS)-3-methyl-1,2,3,4-tetrahydroquinolin-8-yl]sulfonyl}amino-5-guanidinopentanoyl)piperidine-2-carboxylic acid]
2 μM test solution/dispersion in place of physiological saline
  whole blood coagulation time: 520 s
10 μM test solution in place of physiological saline
  whole blood coagulation time: 734 s
20 μM test solution in place of physiological saline
  whole blood coagulation time: 893 s
